Paper PMC12844705, “Multitarget Mechanisms of (‒)‒Epigallocatechin-3-Gallate Against MRSA: From SraP L-Lectin Targeting to Synergistic Antibiotic Effects” (Pathogens, 2026)
pKd: −log10 of the molar value.

Molecular target: T1, Serine-rich adhesin for platelets (SraP), L-Lectin module (Staphylococcus aureus, UniProt Q8NUJ3)
T1 construct: SraP L-Lectin domain (L-Lectin of MW2)
Assay: SPR (Biacore T200, protein amine-coupled on CM5 chip, kinetic fit)
Type: binding

T1 sequence (Q8NUJ3 245-480): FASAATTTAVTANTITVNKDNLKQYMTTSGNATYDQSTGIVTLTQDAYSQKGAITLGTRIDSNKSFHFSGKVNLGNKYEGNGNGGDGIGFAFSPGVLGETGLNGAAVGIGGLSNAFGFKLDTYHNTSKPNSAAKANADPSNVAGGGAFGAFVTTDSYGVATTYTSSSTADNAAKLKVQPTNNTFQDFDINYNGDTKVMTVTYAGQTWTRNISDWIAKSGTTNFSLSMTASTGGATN

Q: O=C(O[C@@H]1Cc2c(O)cc(O)cc2O[C@@H]1c1cc(O)c(O)c(O)c1)c1cc(O)c(O)c(O)c1 [EGCG] was tested. Which pKd did it give?
A: 5.40
